In paper PMC4847944 (Bioorganic & medicinal chemistry, 2014):
Read-outs that look alike come from different tables or passages of the source. Marks after values point to notes of the source that are not given here.

Legend:
[1] = test system: MDA-kb2 cell line; experiment: Cytotoxicity in MDA-kb2 cells
[2] = Solubility in phosphate buffer and cell culture media; assay type: physicochemical; settings: highest concentration tested per footnote f
[3] = test system: MDA-kb2 cell line

SMILES | MDA-kb2 cell culture LC50 ([1]; concentration at which cell viability was reduced by 50%, Promega Cell Titer Glo kit) [µM] | Cytotoxicity in MDA-kb2 cells (result in words) ([1]; same conditions as the reporter assay) | Solubility limit in cell culture media [2] | MDA-kb2 cell culture LC50 [3] | Cytotoxicity in MDA-kb2 cells (result in words) [3]
CO[C@H]1[C@H](OC(=O)c2ccc(C)[nH]2)[C@H](O)[C@@H](Oc2ccc3c(O)c(NC(=O)c4c[nH]c(C(=O)Nc5c(O)c6ccc(O[C@H]7OC(C)(C)[C@@H](OC)[C@H](OC(=O)c8ccc(C)[nH]8)[C@@H]7O)c(C)c6oc5=O)c4C)c(=O)oc3c2C)OC1(C)C [Coumermycin A1, coumermycin A1] | 19.1 ± 9.1 | some accompanying toxicity |  |  | 
COC1=C2C[C@@H](C)C[C@H](OC)[C@H](O)[C@@H](C)/C=C(\C)[C@H](OC(N)=O)[C@@H](OC)/C=C\C=C(/C)C(=O)NC(=CC1=O)C2=O [Geldanamycin, geldanamycin] |  |  | >2^f μM | >2^f μM | 
CO[C@@H]1[C@@H](OC(N)=O)[C@@H](O)[C@H](Oc2ccc3c(O)c(NC(=O)c4ccc(O)c(CC=C(C)C)c4)c(=O)oc3c2C)OC1(C)C [Novobiocin, novobiocin] |  |  |  | 690 ± 188 µM | some accompanying toxicity
